Experimental data reported in PubChem BioAssay AID1013 (Columbia University Molecular Screening Center, 2008).
pIC50: −log10 of the molar value. Calls of active or inactive are those of the source. The rule behind the calls is not given here.

What was measured:
[1] = blockers of VCAM1 upregulation by TNFa – imaging, TNFa stimulus, retest and dose response, confirmation (AID 1013); details: TNFa-stimulated cells, VCAM1 expression imaging; cell count; at 10 µM; stronger effect = lower value;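 for cell count: compound on cells 1 h before TNFa then 24 h more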
[2] = system: TNFa-stimulated cells, VCAM1 expression imaging; assay: as above

SMILES	cell count [1] [%]	IC50 [2]	pIC50 [2]
Cc1ccc(NC2=C/C(=N\S(=O)(=O)c3cccs3)c3ccccc3C2=O)c(C)c1	104	> 10 µM (inactive)	
COc1cc(C(=O)N/N=C/c2ccsc2C)cc(OC)c1OC	48.6	> 10 µM (inactive)	
Cc1ccc2nc(SCC(=O)Nc3cc(C(F)(F)F)ccc3N3CCOCC3)[nH]c2c1	105	> 10 µM (inactive)	
Cc1ccc(O)c(NC(=O)C2CC(c3c(F)cccc3Cl)=NO2)c1 (configuration not stated)	105	> 10 µM (inactive)	
COc1ccccc1-n1cnc2cc(NCc3ccco3)ccc21	41.8	> 10 µM (inactive)	
COc1ccc(OC)c(C2C3=C(COC3=O)Nc3cc4c(cc32)OCO4)c1 (configuration not stated)	112	> 10 µM (inactive)	
CC(C)Oc1ccccc1C1CC(=O)Nc2cc3c(cc21)OCO3 (configuration not stated)	80.6	> 10 µM (inactive)	
COc1ccc(NC(=O)/C(Cl)=C(/Cl)S(=O)(=O)Cc2ccc(C)cc2)cn1	22.9		5.49
CCN(CC)c1ccc(-c2nn3c(-c4ccccc4OC)nnc3s2)cc1	31.6		5.53
C=CCn1c(SCc2c(C)noc2C)nc2ccccc2c1=O	43.3	> 10 µM (inactive)	
COc1ccc(NS(=O)(=O)c2cc(C)ccc2NC(=O)c2cc(C)oc2C)cc1	71		5.50
COCCOC(=O)c1[nH]c2c(c1C)C(=O)CC(c1ccccc1)C2 (configuration not stated)	63	> 10 µM (inactive)	
Cc1ccc(O)c(NC(=O)CCC2CCCCC2)c1	113	> 10 µM (inactive)	
CC1CCC/C=C/C2CC(O)CC2C(O)/C=C/C(=O)O1 (configuration not stated)	19.2		6.95
O=C(CS(=O)c1ccc(C(F)(F)F)cc1[N+](=O)[O-])Oc1ccc(Cl)cc1 (configuration not stated)	111	> 10 µM (inactive)	
O=C1C(=O)c2ccccc2-c2ccccc21	44.1		5.52
CCn1c2ccccc2c2cc(NC(=O)c3cc(OC)c(OC)c(OC)c3)ccc21	33.6		5.56
CCOc1ccccc1C(=O)N1CCN(c2cccc(Cl)c2)CC1	15.7		6.64
Cc1ccc(CSc2nc3ccccc3cc2C=O)cc1	110	> 10 µM (inactive)	
CCCC1=Nc2cc(C(=O)NCCCOCC)ccc2Sc2ccccc21	31.7		6.00
COc1ccc(N=c2oc3ccc(OC)cc3cc2-c2nc3ccccc3[nH]2)cc1	110	> 10 µM (inactive)	

SMILES	cell count [1] [%]	IC50 [2]	pIC50 [2]
COc1ccc(OC)c(NS(=O)(=O)c2ccc(N3CCCC3=O)cc2)c1	43.7		5.53
COc1cc(/C=N/Nc2snc(SC)c2C#N)ccc1O	105	> 10 µM (inactive)	
COc1ccc(NC(=O)/C(Cl)=C(/Cl)S(=O)Cc2ccccc2)cn1 (configuration not stated)	34.2		5.98
O=S(=O)(c1ccc(Cl)c(Cl)c1)c1snnc1-c1ccccc1	99.6		5.10
O=C(NC(Nc1nc2ccc([N+](=O)[O-])cc2s1)(C(F)(F)F)C(F)(F)F)c1ccccc1	46.9		6.47
CCC(C)[C@@H](NC(=O)OC(C)(C)C)c1nnc(S(=O)(=O)Cc2cccc(C)c2)o1 (some centres not stated)	95.6	> 10 µM (inactive)	
CN1Cc2cc(C(=O)c3cc(Cl)cc(CSc4ncccn4)c3O)cnc2NC1=O	85.8	> 10 µM (inactive)	
C/C(=N\O)c1ccc2c3ccccc3n(C)c2c1	89	> 10 µM (inactive)	
CCOC(=O)Nc1nc(-c2ccccc2)c(C(=O)c2ccccc2)s1	61.6	> 10 µM (inactive)	
C/C=C/COC(=O)c1[nH]c2c(c1C)C(=O)CC(c1ccco1)C2 (configuration not stated)	73.9	> 10 µM (inactive)	
O=C(N/N=C/C(Br)=C\c1ccccc1)c1n[nH]c2c1CCC2	29.2		6.20
Cc1cc(C)c2nc(SCC(=O)N3CC(=O)Nc4ccccc43)c(C#N)cc2c1	47.2		5.32
CCOc1ccc(C2=Nn3c(nnc3-c3ccccc3OC)SC2)cc1	32.1		> 7.00
COc1cc(C2C3=C(Nc4ncnn42)c2ccccc2CC3)cc(OC)c1OC (configuration not stated)	27.6		5.75
COc1ccc(CCNc2nnc(Sc3nnnn3-c3ccccc3)s2)cc1OC	27.4		5.79
CN(C)c1ccc(C(=O)c2ccc(N(C)C)c3ccccc23)cc1	27.7		5.76
CCOC(=O)c1[nH]c(C)c(C(=O)c2cc(F)ccc2F)c1C	70.7		6.22
O=C(c1ccc(Br)cc1)c1cc([N+](=O)[O-])ccc1N1CCCCC1	102	> 10 µM (inactive)	
COc1cc(/C=C(/C#N)C(=O)NCCc2c[nH]c3ccccc23)ccc1OCc1ccccc1F	98.2	> 10 µM (inactive)	
COc1ccc(-n2nnnc2S(=O)(=O)CC(=O)N2CCCCC2)cc1	4.64		5.52
Cc1ccc(-c2nc(NC(=O)c3nn(C)cc3[N+](=O)[O-])sc2C)cc1C	94.9	> 10 µM (inactive)	

SMILES	cell count [1] [%]	IC50 [2]	pIC50 [2]
CCCOc1ccccc1C1CC(=O)Nc2cc3c(cc21)OCCO3 (configuration not stated)	113	> 10 µM (inactive)	
COc1ccc(C2=Nn3c(nnc3-c3ccc(OC)cc3)SC2)cc1	114	> 10 µM (inactive)	
O=[N+]([O-])c1ccc(O)c(/C=N/Nc2ccc(Cl)nn2)c1	106	> 10 µM (inactive)	
CC(/C=N/NC(=O)c1cc(-c2ccncc2)nc2ccccc12)=C\c1ccco1	30.4		5.44
Cc1cccc(CS(=O)(=O)c2nnc([C@H](Cc3ccccc3)NC(=O)OC(C)(C)C)o2)c1	99.2	> 10 µM (inactive)	
CSc1nc(N(C)NC(=O)c2cccc(C)c2)c2ccccc2n1	39.5		6.38
O=C(N/N=C/C=C/c1ccccc1)c1n[nH]c2c1CCC2	103	> 10 µM (inactive)	
Cc1cc(C)c(/C=N/NC(N)=O)c(C)c1/C=N/NC(N)=O	71.9		6.29
COc1ccc(-c2cc(C(F)(F)F)n3nc(C(=O)Nc4cc(C)on4)cc3n2)cc1OC	97.9	> 10 µM (inactive)	
CCCOC(=O)c1[nH]c2c(c1C)C(=O)CC(c1cccs1)C2 (configuration not stated)	89	> 10 µM (inactive)	
O=Cc1cc2ccccc2nc1SCc1ccc(Cl)cc1	99.9	> 10 µM (inactive)	
O=C(OCn1ncc(Br)c(Br)c1=O)c1c(F)cccc1F	54.9		5.09
O=c1c2ccccc2nc(/C=C/c2ccc([N+](=O)[O-])o2)n1CCCO	83.1		5.81
O=C1CCCc2c1[nH]c1ccc(Cl)cc21	61.6		6.05
COc1ccc(S(=O)(=O)Nc2cc3c(C(C)=O)c(C)oc3c3ccccc23)cc1	113	> 10 µM (inactive)	
CCOC(=O)c1[nH]c(C)c(C(=O)N2CCc3ccccc32)c1C	61.8		6.11
C=CCSc1nc2ccccc2n1C(=O)/C=C/c1cc(OC)c(OC)c(OC)c1	106	> 10 µM (inactive)	
O=[N+]([O-])/C=C/c1c(OCc2ccccc2)ccc2ccccc12	112	> 10 µM (inactive)	
COc1ccc(NC(=O)/C(Cl)=C(/Cl)S(=O)Cc2ccc(C)cc2)cn1 (configuration not stated)	55		5.66
COc1ccc(C(=O)c2ccc(N(C)C)cc2)c2ccccc12	93.2	> 10 µM (inactive)	
COc1ccccc1-c1cc(C(F)(F)F)nc(S(=O)(=O)CCCC(=O)N2CCCCC2C)n1 (configuration not stated)	88.8	> 10 µM (inactive)	

SMILES	cell count [1] [%]	IC50 [2]	pIC50 [2]
O=C(Nc1nccs1)c1cccc(N2C(=O)c3cccc4c([N+](=O)[O-])ccc(c34)C2=O)c1	102	> 10 µM (inactive)	
O=[N+]([O-])c1ccc(Sc2nc3ccccc3o2)c([N+](=O)[O-])c1	106	> 10 µM (inactive)	
O=Cc1cc2ccccc2nc1SCc1ccc(Cl)c(Cl)c1	109	> 10 µM (inactive)	
CCC(=O)Nc1nc(-c2ccccc2)ns1	115	> 10 µM (inactive)	
Oc1ccc(Nc2nc3ccccc3nc2Nc2ccc(O)cc2)cc1	1.62		5.49
CCCCCc1ccc(-c2ccc(=O)[nH]n2)cc1	91		5.60
COc1ccc(C2=Nn3c(nnc3-c3ccccc3OC)SC2)cc1OC	46.9		6.25
Oc1ccc(Nc2nc(-c3ccc4ccccc4c3)cs2)cc1	92.9	> 10 µM (inactive)	
CCOC(=O)C1=C(c2ccccc2)O/C(=C(/C#N)C(F)(F)F)S1	107	> 10 µM (inactive)	
COc1cc(-c2nnc3n2N=C(c2ccccc2)CS3)cc(OC)c1OC	99.8	> 10 µM (inactive)	
CC(C)Oc1ccccc1C1CC(=O)Nc2cc3c(cc21)OCCO3 (configuration not stated)	104	> 10 µM (inactive)	
CC(/C=N/NC(=O)c1cc(-c2ccc(Cl)cc2)nc2ccccc12)=C\c1ccco1	116	> 10 µM (inactive)	
Cc1ccc(Cl)cc1NC1=C/C(=N\S(=O)(=O)c2cccs2)c2ccccc2C1=O	123	> 10 µM (inactive)	
CC(C)(C)C(=O)/C(=C\c1cccc([N+](=O)[O-])c1)n1cncn1	1.73		5.96
O=C(N/N=C/C(Br)=C/c1ccccc1)c1n[nH]c2c1CCC2	28.6		7.00
O=S(=O)(C/C(=C/CO)S(=O)(=O)c1ccccc1)c1ccccc1	9.93		5.79
CC[C@@H](C)[C@H](NC(=O)OC(C)(C)C)c1nnc(S(=O)(=O)Cc2cc(C)ccc2C)o1	117	> 10 µM (inactive)	
CCOC(=O)c1[nH]c(C)c(C(=O)c2ccc(C)cc2)c1C	85.6	> 10 µM (inactive)	
